# From US4400510A, “A-32256 Phenazine antibiotic” (Eli Lilly and Company, priority 1981, dated 1983)
# Counter-ions that a name gives are not always drawn. Like-named read-outs stand apart in the source and are kept apart here.
# Assays:
# Clostridium perfringens = experiment: microbe, parasite or virus in culture; assay type: cell-based; conditions: strain 81; Table 6; disodium salt, monohydrate
# [1] = system: Streptococcus sp. (Group D); experiment: disc-plate screening procedure, zone of inhibition; conditions: read-out: Zone Diameter
# Propionibacterium acnes = experiment: agar-dilution MIC vs. anaerobic bacteria; assay type: cell-based; conditions: strain 79; Table 6; disodium salt, monohydrate
# [2] = system: Bacteroides melanogenicus; experiment: agar-dilution MIC vs. anaerobic bacteria; assay type: cell-based; conditions: Table 6, disodium salt, monohydrate
# [3] = system: Peptococcus asaccharolyticus; experiment: agar-dilution MIC vs. anaerobic bacteria; assay type: cell-based; conditions: strain 1302; Table 6; disodium salt, monohydrate
# Trichomonas vaginalis = experiment: broth dilution assay, antitrichomonal activity; assay type: cell-based; conditions: Trichomonas vaginalis; broth dilution assay; read-out: Minimal Inhibitory Concentration
# Bacteroides vulgatis = experiment: agar-dilution MIC vs. anaerobic bacteria; assay type: cell-based; conditions: strain 1211; Table 6; disodium salt, monohydrate
# [4] = system: Fusobacterium necrophorum; experiment: agar-dilution MIC vs. anaerobic bacteria; assay type: cell-based; conditions: strain 6054A; Table 6; disodium salt, monohydrate
# Eubacterium aerofaciens = experiment: agar-dilution MIC vs. anaerobic bacteria; assay type: cell-based; conditions: strain 1235; Table 6; disodium salt, monohydrate
# Staphylococcus aureus = experiment: disc-plate screening procedure, zone of inhibition
# [5] = system: Peptostreptococcus intermedius; experiment: agar-dilution MIC vs. Peptococcus and Peptostreptococcus species; assay type: cell-based; conditions: Table 9, disodium salt, monohydrate
# Method: (§1) The agar-dilution procedure described by the International Collaborative Study (ICS) group was used to determine MIC values.
# (§2) The MIC values were determined by the agar-dilution method, and are recorded in Table 9, which follows.
# Peptococcus magnus = experiment: as above; assay type: cell-based; conditions: Table 9, disodium salt, monohydrate
# Method: as §1, §2
# [6] = system: Peptococcus asaccharolyticus; experiment: as above; assay type: cell-based; conditions: Table 9, disodium salt, monohydrate
# Method: as §1, §2
# [7] = system: Peptostreptococcus anaerobius; experiment: as above; assay type: cell-based; conditions: Table 9, disodium salt, monohydrate
# Method: as §1, §2
# Peptococcus prevoti = experiment: as above; assay type: cell-based; conditions: Table 9, disodium salt, monohydrate
# Method: as §1, §2
# Peptococcus constellatus = experiment: as above; assay type: cell-based; conditions: Pc. constellatus 1468; Table 9; disodium salt, monohydrate
# Method: as §1, §2
# Fusobacterium symbiosum = experiment: agar-dilution MIC vs. anaerobic bacteria; assay type: cell-based; conditions: strain 1470; Table 6; disodium salt, monohydrate
# Bacteroides fragilis [8] = experiment: agar-dilution MIC vs. anaerobic bacteria; assay type: cell-based; conditions: Table 6, disodium salt, monohydrate
# Streptococcus pyogenes = experiment: disc-plate screening procedure, zone of inhibition; conditions: read-out: Zone Diameter
# Streptococcus pneumoniae = experiment: disc-plate screening procedure, zone of inhibition; conditions: read-out: Zone Diameter
# hygroscopicity = assay type: physicochemical; conditions: monohydrate, brown powder
# B. corrodens = experiment: agar-dilution MIC vs. Bacteroides species; assay type: cell-based; conditions: B. corrodens 1874; 24 hours; Table 8; disodium salt, monohydrate
# Method: as §1
# (§3) The MIC values were determined by the agar-dilution method, the endpoints being read 24 hours after incubation, and are recorded in Table 8, which follows.
# B. vulgatis = experiment: agar-dilution MIC vs. Bacteroides species; assay type: cell-based; conditions: B. vulgatis 1563; 24 hours; Table 8; disodium salt, monohydrate
# Method: as §1, §3
# B. thetaiotaomicron = experiment: agar-dilution MIC vs. Bacteroides species; assay type: cell-based; conditions: 24 hours, Table 8, disodium salt, monohydrate
# Method: as §1, §3
# Bacteroides fragilis [9] = experiment: agar-dilution MIC vs. Bacteroides species; assay type: cell-based; conditions: 24 hours, Table 8, disodium salt, monohydrate
# Method: as §1, §3
# Actinomyces israellii = experiment: agar-dilution MIC vs. anaerobic bacteria; assay type: cell-based; conditions: strain W855; Table 6; disodium salt, monohydrate
# Method: as §1
# The MIC was determined by the agar-dilution method.
compound,measurement,setting,value
"Cc1cccc(O)c1C(=O)OC(C)c1cccc2nc3c(C(=O)O)cccc3nc12 (stereo not shown) [A-32256 disodium salt, 6-[1-[(2-hydroxy-6-methylbenzoyl)oxy]ethyl]-1-phenazinecarboxylic acid, disodium salt, monohydrate]",MIC,Clostridium perfringens,1.0 µg/mL
same,zone of inhibition at 10 µg/disc,[1],15.6 mm
same,zone of inhibition at 100 µg/disc,[1],20.4 mm
same,MIC,Propionibacterium acnes,≤ 0.5 µg/mL
same,MIC,[2]; strain 1856/28,32 µg/mL
same,MIC,[2]; strain 2736,≤ 0.5 µg/mL
same,MIC,[3],≤ 0.5 µg/mL
same,MIC,Trichomonas vaginalis,< 0.975 µg/mL
same,MIC,Bacteroides vulgatis,≤ 0.5 µg/mL
same,MIC,[4],1.0 µg/mL
same,MIC,Eubacterium aerofaciens,≤ 0.5 µg/mL
same,zone of inhibition at 10 µg/disc,"Staphylococcus aureus; read-out: Zone Diameter, S. aureus 3055, benzylpenicillin-susceptible, 10 mcg/disc",17.8 mm
same,zone of inhibition at 100 µg/disc,"Staphylococcus aureus; read-out: Zone Diameter, S. aureus 3055, benzylpenicillin-susceptible, 100 mcg/disc",25.2 mm
same,zone of inhibition at 10 µg/disc,"Staphylococcus aureus; read-out: Zone Diameter, S. aureus 3074, benzylpenicillin-resistant, 10 mcg/disc",16.2 mm
same,zone of inhibition at 100 µg/disc,"Staphylococcus aureus; read-out: Zone Diameter, S. aureus 3074, benzylpenicillin-resistant, 100 mcg/disc",23.3 mm
same,zone of inhibition at 10 µg/disc,"Staphylococcus aureus; read-out: Zone Diameter, S. aureus 3130, methicillin-resistant, 10 mcg/disc",19.8 mm
same,zone of inhibition at 100 µg/disc,"Staphylococcus aureus; read-out: Zone Diameter, S. aureus 3130, methicillin-resistant, 100 mcg/disc",26.8 mm
same,MIC,[5]; Ps. intermedius 1264,≤ 0.06 µg/mL
same,MIC,[5]; Ps. intermedius 1624,≤ 0.06 µg/mL
same,MIC,Peptococcus magnus; Pc. magnus 1401,0.125 µg/mL
same,MIC,Peptococcus magnus; Pc. magnus 1421,0.125 µg/mL
same,MIC,Peptococcus magnus; Pc. magnus 1477,0.125 µg/mL
same,MIC,[6]; Pc. asaccharolyticus 1302,≤ 0.06 µg/mL
same,MIC,[6]; Pc. asaccharolyticus 1344,≤ 0.06 µg/mL
same,MIC,[7]; Ps. anaerobius 8,0.25 µg/mL
same,MIC,[7]; Ps. anaerobius 52,0.5 µg/mL
same,MIC,[7]; Ps. anaerobius 59,≤ 0.06 µg/mL
same,MIC,[7]; Ps. anaerobius 1418,≤ 0.06 µg/mL
same,MIC,[7]; Ps. anaerobius 1428,0.25 µg/mL
same,MIC,[7]; Ps. anaerobius 1451,≤ 0.06 µg/mL
same,MIC,[7]; Ps. anaerobius 1477,0.125 µg/mL
same,MIC,Peptococcus prevoti; Pc. prevoti 1281,0.125 µg/mL
same,MIC,Peptococcus prevoti; Pc. prevoti 1293,0.125 µg/mL
same,MIC,Peptococcus prevoti; Pc. prevoti 1407,0.5 µg/mL
same,MIC,Peptococcus constellatus,0.5 µg/mL
same,MIC,Fusobacterium symbiosum,≤ 0.5 µg/mL
same,MIC,Bacteroides fragilis [8]; strain 111,≤ 0.5 µg/mL
same,MIC,Bacteroides fragilis [8]; strain 1877,≤ 0.5 µg/mL
same,MIC,Bacteroides fragilis [8]; strain 1936B,≤ 0.5 µg/mL
same,zone of inhibition at 10 µg/disc,Streptococcus pyogenes,17 mm
same,zone of inhibition at 100 µg/disc,Streptococcus pyogenes,21 mm
same,zone of inhibition at 10 µg/disc,Streptococcus pneumoniae,25 mm
same,zone of inhibition at 100 µg/disc,Streptococcus pneumoniae,31 mm
same,hygroscopicity,hygroscopicity,hygroscopic
same,MIC,B. corrodens,≤ 0.015 µg/mL
same,MIC,B. vulgatis,0.03 µg/mL
same,MIC,B. thetaiotaomicron; B. thetaiotaomicron 1438,0.03 µg/mL
same,MIC,B. thetaiotaomicron; B. thetaiotaomicron 1900A,0.03 µg/mL
same,MIC,Bacteroides fragilis [9]; B. fragilis 2,≤ 0.015 µg/mL
same,MIC,Bacteroides fragilis [9]; B. fragilis 9,≤ 0.015 µg/mL
same,MIC,Bacteroides fragilis [9]; B. fragilis 62,≤ 0.015 µg/mL
same,MIC,Bacteroides fragilis [9]; B. fragilis 103,≤ 0.015 µg/mL
same,MIC,Bacteroides fragilis [9]; B. fragilis 104,≤ 0.015 µg/mL
same,MIC,Bacteroides fragilis [9]; B. fragilis 106,≤ 0.015 µg/mL
same,MIC,Bacteroides fragilis [9]; B. fragilis 107,0.03 µg/mL
same,MIC,Bacteroides fragilis [9]; B. fragilis 108,≤ 0.015 µg/mL
same,MIC,Bacteroides fragilis [9]; B. fragilis 110,≤ 0.015 µg/mL
same,MIC,Bacteroides fragilis [9]; B. fragilis 111,0.03 µg/mL
same,MIC,Bacteroides fragilis [9]; B. fragilis 112,≤ 0.015 µg/mL
same,MIC,Bacteroides fragilis [9]; B. fragilis 113,≤ 0.015 µg/mL
same,MIC,Bacteroides fragilis [9]; B. fragilis 1470,≤ 0.015 µg/mL
same,MIC,Bacteroides fragilis [9]; B. fragilis 1877,≤ 0.015 µg/mL
same,MIC,Bacteroides fragilis [9]; V. fragilis 1451 (so in the source),0.03 µg/mL
same,MIC,Actinomyces israellii,≤ 0.5 µg/mL
